Tests used:
[1] = system: normal human neonatal prepuce epidermis keratinized cells (NHEK(F)); experiment: Human epidermis keratinized cell proliferation assay (WST-8 cell counting); type: cell-based; settings: for overall effect on cell proliferation ability as compared with the control: summary of the 24 and 48 hour experiments
Protocol: Human epidermis keratinized cells were cultured in the presence of chitin and chitosan as well as their derivatives, and change in proliferation ability of the cell was measured.
As the human epidermis cell, normal human neonatal prepuce epidermis keratinized cells (NHEK(F)) (Kurabo Biomedical, Osaka) were used.
A medium used for measuring NHEK(F) proliferation effect was obtained by adding 1 ml of a PSA solution (Kurabo Biomedical, Osaka) containing penicillin, streptomycin and amphoterin B, and 10% bovine fetus serum (Gibco, USA) to 500 ml of a basic medium for human epidermis keratinized cell HuMedia-KB2 (Kurabo Biomedical, Osaka).
Cells were cultured under 37° C., 5% CO2 and wet environments using a medium for proliferation and a flask for culturing (Lot No. 055522) (Nalge Nunc International, Denmark), and passed to quaternary culture and used in an experiment.
The medium was aspirated when proliferation of cells reach sub-confluent (60 to 80% of the flask bottom area), then, inside of the vessel was washed with HEPES, and 2 ml of trypsin was added to cause release of cells from the vessel bottom. The released cells were recovered by HEPES and added into the neutralization solution to terminate the reaction of trypsin, and then, precipitated by centrifugal separation (1100 rpm, 5 minutes), and the supernatant was discarded. The recovered cells were re-floated on a medium for proliferation, the live cell number was counted by a trypan blue discharge test, and then, transplanted into another flask for culturing so that the live cell concentration to the flask bottom area was […].
For measurement, cells were centrifugally separated, then, re-floated on a medium for measurement and adjusted at 30000 cells/ml to give a cell suspension which was then used.
Into each well of a 96-well multi-plate (Sumitomo Bakelite Co. Ltd., Tokyo), the cell suspension prepared in (1) was disseminated each in an amount of 100 μl at a concentration of 3000 cells/well. For stabilizing disseminated cells, previous culturing was carried out for 12 hours under 37° C., 5% CO2 and wet environments.
Next, into each well of the multi-plate, the chitin-based samples or chitosan-based samples controlled at respective concentrations were added each in an amount of 10 μl. The final concentrations of respective samples in this operation were 100, 10, 1 and 0.1 μg/ml, respectively. True culturing was carried out for 24 hours or 48 hours under 37° C., 5% CO2 and wet environments.
For counting the number of cells proliferated in the culturing, a reagent for measuring cell number (cell counting kit) WST-8 was added in an amount of 10 μl to each well of the multi-plate, and allowed to stand still under 37° C., 5% CO2 and wet environments for 1 to 4 hours to cause coloration. After coloration, the absorbance was measured using EASY READER EAR340AT (Medi-Con Corporation, Osaka). Numerical treatment and statistics of the measured data were carried out using a table calculation software (Microsoft Excel xp (R)).
The cell number and absorbance show a proportional correlation (FIG. 2, Table 2), and this graph gave a calibration curve:
A cell number in dissemination of 3000 was subtracted from the cell number obtained from this calibration curve to give a proliferated cell number (cells/well).

skin deficient wound = experiment: Skin deficient wound mouse model, skin regeneration; type: in vivo
Protocol: Fresh skin deficient wound was made using mice and a skin regeneration promoting effect of GlcNAc was studied. As a control, chitin in the form of gel (Chitosan Kowa K.K.) and physiological saline were used. (i) Eight 8-weeks female mice: BALB/c having a body weight of 20 to 25 g were used. In the experiment, one week-conditioning period was set. (ii) An N-acetyl-D-glucosamine (GlcNAc) powder (Seikagaku Kogyo K.K., Tokyo) was diluted in physiological saline so that its concentration was 10 mg/ml, and then, sterilized by filtration through a 0.22 μm millipore filter to give stock solution the stock solution was then diluted with sterile physiological saline to 10 μg/ml and used. (iii) chitin in the form of gel (Chitosan Kowa, Tokyo). Hereinafter, referred to as “chitin gel”. (iv) GlcNAc was blended in chitin gel so that its concentration was 10 μg/g and the blend was used. Hereinafter, the blend is referred to as “chitin gel+GlcNAc”. (i) Production of skin deficient model: Pentobarbital (trade name: Nembutal injection) was diluted 10-fold with physiological saline, and then, administered intraperitoneally to a mouse at 0.005 ml/g. After a sufficient anesthetic effect was confirmed, hair at the back of the mouse was shaved by a hair clipper, and the skin was disinfected with alcohol, and then, a round skin deficient region having a diameter of 5 mm was made using a 5 mm derma punch (FIG. 9). These eight mice were classified into “chitin gel group”, “chitin gel+GlcNAc group”, “GlcNAc group” and “physiological saline group” each containing two mice, and each group was applied once a day. (ii) “chitin gel group” and “chitin gel+GlcNAc group” were directly applied to the skin deficient region for 7 days each at 0.1 g/head, and “GlcNAc group” and “physiological saline group” were each at 1 ml/head. (iii) On 8th and later days, the crust formed was removed directly before application of each group, and application was carried out for further 8 days in the same manner as described above. The size of the skin damage repair region was measured on 8th and 16th days using calipers. Staining method: The skin deficiency repair region was collected, and fixed with a 10% neutral buffer formalin aqueous solution (formaldehyde solution). The repair region was excised to give a longitudinal section, and then, embedded in paraffin according to an ordinary method and sliced into 5 μm by a microtome. It was stained by hematoxylin-eosin staining.

[2] = 24 hours after addition, 0.1 μg/ml
[3] = 24 hours after addition, 1 μg/ml
[4] = 24 hours after addition, 10 μg/ml
[5] = 24 hours after addition, 100 μg/ml
[6] = 48 hours after addition, 0.1 μg/ml
[7] = 48 hours after addition, 1 μg/ml
[8] = 48 hours after addition, 10 μg/ml
[9] = 48 hours after addition, 100 μg/ml
[10] = 5 mm skin deficient region, applied once a day for 16 days
[11] = hematoxylin-eosin staining of the repair region

SMILES | average cell proliferation number [1, 2] | average cell proliferation number [1, 3] | average cell proliferation number [1, 4] | average cell proliferation number [1, 5] | proliferation effect as compared with the control (p<0.05) ([1]; 24 hours, 1 μg/ml) | proliferation effect as compared with the control (p<0.05) ([1]; 24 hours, 10 μg/ml) | proliferation effect as compared with the control (p<0.05) ([1]; 24 hours, 100 μg/ml) | average cell proliferation number [1, 6] | average cell proliferation number [1, 7] | average cell proliferation number [1, 8] | average cell proliferation number [1, 9] | proliferation effect as compared with the control (p<0.05) ([1]; 48 hours, 1 μg/ml) | proliferation effect as compared with the control (p<0.05) ([1]; 48 hours, 10 μg/ml) | proliferation effect as compared with the control (p<0.05) ([1]; 48 hours, 100 μg/ml) | overall effect on cell proliferation ability as compared with the control [1] | visual observation: epidermis / skin formation (skin deficient wound; [10]) | visual observation: excess granulation (skin deficient wound; [10]) | overall skin regenerating effect in a mouse (skin deficient wound; compared with physiological saline and chitin gel) | histological observation: hypodermis (skin deficient wound; [11]) | histological observation: regeneration of skin / epidermis (skin deficient wound; [11])
CC(=O)N[C@H]1C(O)O[C@H](CO)[C@@H](O)[C@@H]1O (stereo partly drawn) [GlcNAc, N-Acetyl-D-Glucosamine] | 601 ± 39 cell/well | 774 ± 158 cell/well | 636 ± 51 cell/well | 628 ± 73 cell/well | significant proliferation stimulating effects | significant proliferation stimulating effects | significant proliferation stimulating effects | 1312 ± 169 cell/well | 2372 ± 415 cell/well | 2155 ± 175 cell/well | 2128 ± 165 cell/well | significant proliferation stimulating effects | significant proliferation stimulating effects | significant proliferation stimulating effects | significant effect of stimulating cell proliferation ability | complete cutization was recognized | excess granulation did not occur | more excellent than physiological saline and chitin gel | leaves a slight granulation tissue at the center portion | skin regeneration is completed
N[C@H]1C(O)O[C@H](CO)[C@@H](O)[C@@H]1O (stereo partly drawn) [GlcN, D-Glucosamine, reference compound] | 587 ± 134 cell/well | 766 ± 114 cell/well | 634 ± 65 cell/well | 689 ± 34 cell/well | significant proliferation stimulating effects | significant proliferation stimulating effects | significant proliferation stimulating effects | 1616 ± 244 cell/well | 2108 ± 344 cell/well | 1839 ± 160 cell/well | 1758 ± 424 cell/well | significant proliferation stimulating effect |  |  | significant effect of stimulating cell proliferation ability |  |  |  |  | 
